According to US20130072459A1, “PHARMACEUTICAL COMPOSITION FOR THE PREVENTION OR THE TREATMENT OF NON-ALCOHOLIC FATTY LIVER DISEASE AND THE METHOD FOR PREVENTION OR TREATMENT OF NON-ALCOHOLIC FATTY LIVER DISEASE USING THE SAME” (priority 2010, published 2013):

Tested on: high fat diet-induced simple steatosis
Assay: Therapeutic effects on high fat diet-induced simple steatosis in rats
Format: in vivo, Wistar rats
Procedure: 6-week old male rats (Wistar rats) were stabilized and then divided into 2 groups. Animal groups were respectively given a standard diet containing 10% fat (trade name: D12450B, manufactured by Research Diets) and a high fat diet containing 60% fat (trade name: D12492, manufactured by Research Diets) for 24 weeks. […] In order to supply 10 mg/kg which is a daily target dose of tartrate of Compound 1, a diet was formulated by mixing a high fat diet and 0.03% by weight of tartrate of Compound 1. 24 weeks after a supply of each diet, animals were divided into a high fat diet-fed group (n=8), a group fed with a high fat diet+0.03% by weight of tartrate of Compound 1 (n=8), and a standard diet-fed group (n=8), followed by feeding for another 14 weeks. Then, animals were dissected and sera were separated. Then, serum ALT levels (alanine aminotransferase), GPT, (glutamic pyruvate transaminase) were measured using a blood analyzer (FIG. 4). The excised liver was homogenized in a 5(v/v) % Triton-X solution, and a triglyceride working reagent [which was prepared by mixing a free glycerol reagent (F6428, Sigma) and a triglyceride reagent (T2449, Sigma) in a ratio of 4:1(v/v)] was added thereto, followed by measurement of an absorbance at 540 nm to determine the content of triglyceride (FIG. 5). In addition, in order to observe histological fat distribution, a portion of the excised liver was fixed in a 10(v/v) % formalin solution and then a tissue sample was prepared, followed by hematoxylin & eosin(HE) staining and photographing using an image analysis program (computerized image analysis) (FIG. 6, the violet-stained portion represents a normal liver tissue, and white portion represents lipid droplets). Thereafter, an area of lipid droplets/unit area of a sample was calculated (FIG. 7).

[1] = high fat diet + 0.03% drug for 14 weeks, vs high fat diet-fed group

CC(C)(C)OC[C@@H]1C(=O)NCCN1C(=O)C[C@H](N)Cc1cc(F)c(F)cc1F [tartrate of Compound 1, (R)-4-[(R)-3-amino-4-(2,4,5-trifluorophenyl)-butanoyl]-3-(t-butoxymethyl)piperazin-2-one]
significant decrease: serum alanine aminotransferase (ALT), result in words (high fat diet 24 weeks then high fat diet + 0.03% drug (target 10 mg/kg/day) for 14 weeks) | hepatic triglyceride content in hepatic triglyceride analysis, result in words [1] | hepatic triglyceride content in histological analysis (area of lipid droplets/unit area), result in words [1]
